≈ marks a conversion by molar mass, not a printed value.
Experiments:
A. niger = assay: In vitro antifungal MIC; format: cell-based; settings: for MIC A. niger: 72-96 h incubation; for MIC: Aspergillus niger, read-out: MIC A. niger
B. subtilis (MTCC-121) = assay: In vitro antibacterial MIC, microbroth dilution; format: cell-based; settings: for MIC B. subtilius: 24 h incubation; for potency against B. substilius compared to the standard drug: versus Streptomycin
Rhizopus sp = assay: In vitro antifungal MIC; format: cell-based; settings: for MIC Rhizopus sp: 72-96 h incubation; for MIC: Rhizopus, read-out: MIC Rhizopus sp
K. pneumonia (MTCC2272) = assay: In vitro antibacterial MIC, microbroth dilution; format: cell-based, K. pneumoniae; settings: for MIC K. pneumoniae: 24 h incubation; for inhibitory activity against K. pneumoniae compared to standard drug: versus Streptomycin
A. flavus = assay: In vitro antifungal MIC; format: cell-based; settings: for MIC A .flavus: 72-96 h incubation; for MIC: Aspergillus flavus, read-out: MIC A .flavus
P. aeruginosa (MTCC-741) = assay: In vitro antibacterial MIC, microbroth dilution; format: cell-based; settings: for MIC P. aeruginosa: 24 h incubation; for MIC: Pseudomonas aeruginosa, MTCC741, 24 h, read-out: MIC P. aeruginosa
E. coli (MTCC-443) = assay: In vitro antibacterial MIC, microbroth dilution; format: cell-based; settings: for MIC E. coli: 24 h incubation; for MIC: Escherichia coli, MTCC443, 24 h, read-out: MIC E. coli
S. aureus (MTCC-96) = assay: In vitro antibacterial MIC, microbroth dilution; format: cell-based; settings: for MIC S. aureus: 24 h incubation
[1] = tested on: peripheral blood mononuclear cells (PBMC); settings: MTT assay
[2] = tested on: Mycobacterium tuberculosis H37Rv; assay: Antitubercular activity, Resazurin Assay method; format: cell-based; settings: for % Inhibition: primary screening (6.5 mg/mL); for antitubercular activity compared to PZA: M. tuberculosis H37Rv, versus PZA
C. albicans = assay: In vitro antifungal MIC; format: cell-based; settings: for MIC C. albicans: 72-96 h incubation; for MIC: Candida albicans, read-out: MIC C. albicans
[3] = Mycobacterium tuberculosis, H37RV

| Compound | MIC A. niger (A. niger) | MIC B. subtilius (B. subtilis (MTCC-121)) | MIC Rhizopus sp (Rhizopus sp) | MIC K. pneumoniae (K. pneumonia (MTCC2272)) | MIC A .flavus (A. flavus) | MIC P. aeruginosa (P. aeruginosa (MTCC-741)) | MIC E. coli (E. coli (MTCC-443)) | MIC S. aureus (S. aureus (MTCC-96)) | % Inhibition ([2]; M. tb H37Rv) | MIC C. albicans (C. albicans) | MIC [2, 3] | inhibition at 6500 µg/mL [2, 3] | other results |
| --- | --- | --- | --- | --- | --- | --- | --- | --- | --- | --- | --- | --- | --- |
| 3,5-Dimethyl-2,6-bis(p-methylphenyl)pyran-4-one N-isonicotinoylhydrazone [Compound 11] | 50 µg/mL | 25 µg/mL | 50 µg/mL | 25 µg/mL | 25 µg/mL | 25 µg/mL | 12.5 µg/mL | 12.5 µg/mL | 76% | 50 µg/mL |  |  | IC50 (cytotoxicity) [1]: 587.6 µg/mL; antitubercular activity compared to PZA [2]: twice |
| NNC(=O)c1ccncc1 [INH, isoniazid, reference compound] |  |  |  |  |  |  |  |  |  |  | 0.1 µg/mL (≈ 0.729 µM) | > 95% |  |
| CC[C@@H](CO)NCCN[C@@H](CC)CO [EMB, Ethambutol, reference compound] |  |  |  |  |  |  |  |  |  |  | 1.56 µg/mL (≈ 7.64 µM) | > 95% |  |
| 3-Methyl-2,6-diphenyltetrahydro-4H-pyran-4-one O-ethynyl oxime [Compound 19] | 50 µg/mL | 25 µg/mL | 100 µg/mL | 25 µg/mL | 100 µg/mL | 100 µg/mL | 50 µg/mL | 50 µg/mL |  | 100 µg/mL |  |  |  |
| 3,5-Dimethyl-2,6-bis(p-methoxyphenyl)−4H-pyran-4-one O-((3-(4-chlorophenyl) isoxazol-5-yl)methyl)oxime [Compound 36] | 6.3 µg/mL | 50 µg/mL | 50 µg/mL | 25 µg/mL | 6.3 µg/mL | 100 µg/mL | 25 µg/mL | 50 µg/mL | 75% | 25 µg/mL |  |  | MIC ([2]; M. tb H37Rv, neutral pH): 6.25 µg/mL |
| CCC1C(=NOCc2cn(-c3ccccc3)nn2)CC(c2ccccc2)OC1c1ccccc1 (stereo not shown) [Compound 26, 3-Ethyl-2,6-diphenyltetrahydro-4H-pyran-4-one O-((1-phenyl-1H-1,2,3-triazol-4-yl)methyl) oxime] |  |  |  |  |  |  |  |  |  |  | 6.25 µg/mL (≈ 13.8 µM) | 70% | MIC (A. niger): 25 µg/mL (≈ 55.2 µM); MIC (Rhizopus sp): 12.5 µg/mL (≈ 27.6 µM); inhibitory activity against K. pneumoniae compared to standard drug (K. pneumonia (MTCC2272)): four-fold; MIC (A. flavus): 6.3 µg/mL (≈ 13.9 µM); MIC (P. aeruginosa (MTCC-741)): 25 µg/mL (≈ 55.2 µM); MIC (E. coli (MTCC-443)): 12.5 µg/mL (≈ 27.6 µM); MIC (C. albicans): 6.3 µg/mL (≈ 13.9 µM) |
| CC1C(=NOCc2cn(-c3ccccc3)nn2)CC(c2ccccc2)OC1c1ccccc1 (stereo not shown) [Compound 25, 3-Methyl-2,6-diphenyltetrahydro-4H-pyran-4-one O-((1-phenyl-1H-1,2,3-triazol-4-yl)methyl)oxime] |  |  |  |  |  |  |  |  |  |  | 6.25 µg/mL (≈ 14.3 µM) | 75% | MIC (A. niger): 50 µg/mL (≈ 114 µM); MIC (Rhizopus sp): 25 µg/mL (≈ 57 µM); inhibitory activity against K. pneumoniae compared to standard drug (K. pneumonia (MTCC2272)): four-fold; MIC (A. flavus): 12.5 µg/mL (≈ 28.5 µM); MIC (P. aeruginosa (MTCC-741)): 12.5 µg/mL (≈ 28.5 µM); MIC (E. coli (MTCC-443)): 25 µg/mL (≈ 57 µM); MIC (C. albicans): 25 µg/mL (≈ 57 µM) |
| 3,5-Dimethyl-2,6-bis(p-methylphenyl)−4H-pyran-4-one O-((3-(4-chlorophenyl) isoxazol-5-yl)methyl) oxime [Compound 35] | 25 µg/mL | 12.5 µg/mL | 50 µg/mL | 25 µg/mL | 25 µg/mL | 25 µg/mL | 25 µg/mL | 12.5 µg/mL | 82% | 25 µg/mL |  |  | potency against B. substilius compared to the standard drug (B. subtilis (MTCC-121)): two-fold; MIC ([2]; M. tb H37Rv, neutral pH): 6.25 µg/mL |
| 3,5-Dimethyl-2,6-bis(p-methoxyphenyl)−4H-pyran-4-one O-((1-phenyl-1H-1,2,3-triazol-4-yl)methyl)oxime [Compound 30] | 12.5 µg/mL | 25 µg/mL |  | 25 µg/mL |  |  |  |  | 80% | 25 µg/mL |  |  |  |
| 3,5-Dimethyl-2,6-bis(p-chlorophenyl)−4H-pyran-4-one O-((1-phenyl-1H-1,2,3-triazol-4-yl) methyl)oxime [Compound 27] | 25 µg/mL | 50 µg/mL |  | 50 µg/mL | 25 µg/mL | 25 µg/mL | 6.3 µg/mL | 25 µg/mL | 75% |  |  |  | inhibitory activity against E. coli compared to Streptomycin (E. coli (MTCC-443); versus Streptomycin): two-fold; MIC ([2]; M. tb H37Rv, neutral pH): 6.25 µg/mL |
| 3-Ethyl-2,6-diphenylpyran-4-one N-isonicotinoylhydrazone [Compound 8] | 25 µg/mL | 6.3 µg/mL | 12.5 µg/mL | 12.5 µg/mL | 25 µg/mL | 25 µg/mL | 6.3 µg/mL | 50 µg/mL | 70% | 25 µg/mL |  |  | IC50 (cytotoxicity) [1]: 486.2 µg/mL; antitubercular activity compared to PZA [2]: twice |
| 3,5-Dimethyl-2,6-bis(p-methoxyphenyl)pyran-4-one N-isonicotinoylhydrazone [Compound 12] | 25 µg/mL | 25 µg/mL | 50 µg/mL | 25 µg/mL | 12.5 µg/mL | 100 µg/mL | 50 µg/mL | 50 µg/mL | 70% | 25 µg/mL |  |  | IC50 (cytotoxicity) [1]: 609.1 µg/mL; antitubercular activity compared to PZA [2]: twice |
| CC1C(=NOCc2cc(-c3ccc(Cl)cc3)no2)CC(c2ccccc2)OC1c1ccccc1 (stereo not shown) [Compound 31, 3-Methyl-2,6-diphenyltetrahydro-4H-pyran-4-one-O-((3-(4-chlorophenyl)isoxazol-5-yl)methyl) oxime] |  | 12.5 µg/mL (≈ 26.4 µM) |  |  |  |  |  |  |  |  | 6.25 µg/mL (≈ 13.2 µM) | 90% | MIC (A. niger): 50 µg/mL (≈ 106 µM); potency against B. substilius compared to the standard drug (B. subtilis (MTCC-121)): two-fold; MIC (Rhizopus sp): 25 µg/mL (≈ 52.9 µM); MIC (A. flavus): 12.5 µg/mL (≈ 26.4 µM); MIC (P. aeruginosa (MTCC-741)): 12.5 µg/mL (≈ 26.4 µM); MIC (E. coli (MTCC-443)): 12.5 µg/mL (≈ 26.4 µM); MIC (C. albicans): 25 µg/mL (≈ 52.9 µM) |
| NC(=O)c1cnccn1 [PZA, pyrazinamide, reference compound] |  |  |  |  |  |  |  |  |  |  | 6.25 µg/mL (≈ 50.8 µM) | > 90% |  |
| 3-Ethyl-2,6-diphenyltetrahydro-4H-pyran-4-one O-ethynyl oxime [Compound 20] | 25 µg/mL | 25 µg/mL | 50 µg/mL | 25 µg/mL | 100 µg/mL | 25 µg/mL | 12.5 µg/mL | 12.5 µg/mL |  | 100 µg/mL |  |  | activity against S. aureus compared to the standard drug (S. aureus (MTCC-96); versus Streptomycin): fourfold |
| 3-Methyl-2,6-diphenylpyran-4-one N-isonicotinoylhydrazone [Compound 7] | 50 µg/mL | 12.5 µg/mL | 25 µg/mL | 12.5 µg/mL | 12.5 µg/mL | 12.5 µg/mL | 6.3 µg/mL | 25 µg/mL | 73% | 25 µg/mL |  |  | MIC ([2]; M. tb H37Rv, neutral pH): 6.25 µg/mL |
| CCC1C(=NOCc2cc(-c3ccc(Cl)cc3)no2)CC(c2ccccc2)OC1c1ccccc1 (stereo not shown) [Compound 32, 3-Ethyl-2,6-diphenyltetrahydro-4H-pyran-4-one O-((3-(4-chlorophenyl)isoxazol-5-yl)methyl) oxime] |  | 12.5 µg/mL (≈ 25.7 µM) |  |  |  |  |  |  |  |  | 6.25 µg/mL (≈ 12.8 µM) | 91% | MIC (A. niger): 25 µg/mL (≈ 51.3 µM); potency against B. substilius compared to the standard drug (B. subtilis (MTCC-121)): two-fold; MIC (Rhizopus sp): 12.5 µg/mL (≈ 25.7 µM); MIC (A. flavus): 6.3 µg/mL (≈ 12.9 µM); MIC (P. aeruginosa (MTCC-741)): 25 µg/mL (≈ 51.3 µM); MIC (E. coli (MTCC-443)): 25 µg/mL (≈ 51.3 µM); MIC (C. albicans): 25 µg/mL (≈ 51.3 µM) |
